From US20240240224A1, “FLUORESCENT D-TYPE AMINO ACID METABOLISM MARKER-BASED METHOD FOR DETECTING ANTIBACTERIAL DRUG SENSITIVITY TEST” (priority 2020, published 2024)
≈ marks a conversion by molar mass, not a printed value.

Columns and labels:
A. baumannii Ab19 [1] = assay: BMD susceptibility test; type: cell-based, Acinetobacter baumannii; conditions: unit assumed
K. pneumoniae Kp6 [2] = assay: BMD susceptibility test; type: cell-based, Klebsiella pneumoniae; conditions: unit assumed
A. baumannii Ab19 [3] = assay: FaAST (FDAA metabolic labeling); type: cell-based, Acinetobacter baumannii; conditions: unit assumed
Procedure: (§1) The specific experimental steps are as follows: • 1. Take the colony to be tested that has been cultured overnight on the plate and fully mix it in normal saline to make a uniform bacterial solution. Dilute it into CAMHB medium to make a bacterial solution with OD600=0.05. • 2. Add 45 μl antibiotic solutions to be tested of different concentrations to 96-well plates (see Table 3 for antibiotic concentration gradient settings). • 3. Add 50 μl of bacterial solution prepared in Step 1 to the 96-well plate and mix well. • 4.5 μl of 10 mM Cy5-DAA probe was added to each well (final concentration was 0.15 mM, and its structure was shown in FIG. 1). After mixing, the probe was incubated for 2 hours in the dark. • 5. After dilution with 200 μl PBS solution, the fluorescence intensity of each sample was detected by flow cytometry. The flow detection results are shown in the attached FIG. 4-5, showing the curve of antibiotic concentration gradient and fluorescence intensity, and the MIC (minimum inhibitory concentration) is obtained by referring to this curve.
(§2) Antibiotic resistant strains are shown in bold in the table below.

Pa ATCC 27853 [4] = conditions: cited from earlier work
K. pneumoniae Kp6 [5] = assay: FaAST (FDAA metabolic labeling); type: cell-based, Klebsiella pneumoniae; conditions: unit assumed
Procedure: as §1, with “cytometry.” for “cytometry. The flow detection results are shown in the attached FIG. 4-5, showing the curve of antibiotic concentration gradient and fluorescence intensity, and the MIC (minimum inhibitory concentration) is obtained by referring to this curve.”

[6] = test system: Klebsiella pneumoniae KPN6; assay: FaAST with DAA-Tetra probe; type: cell-based; conditions: unit assumed
Procedure: The specific experimental steps are as follows: • 1. The tested colonies cultured overnight on the plate were picked and mixed thoroughly in 2× Cation-Adjusted Mueller Hinton Broth medium (2×CAMHB) to make bacterial suspension with turbidity of OD600=0.1. • 2. […] Add 50 μL of the bacterial solution prepared in step 1 (the final concentration of the bacterial solution is OD600=0.05) to the 96-well plate, and add 5 μL of 3 mM DAA-Tetra probe (the final concentration is 0.15 mM), mix well, and incubate in the dark at 37° C. 120 rpm for 2 hours. • 4. After culture, dilute the mixed bacterial solution 10 times with PBS solution, and detect the fluorescence intensity of each sample with flow cytometry. The flow detection result is shown in FIG. 14-19, and the arrow is for the MIC value. The minimum inhibitory concentration of antibiotics was obtained according to the fluorescence signal intensity of flow detection, and the statistical results are shown in Table 6.

E. coli Ec11 [7] = assay: FaAST (FDAA metabolic labeling); type: cell-based, Escherichia coli; conditions: unit assumed
Procedure: as §1, §2

Ec ATCC 25922 [8] = assay: FaAST (FDAA metabolic labeling); type: cell-based, Escherichia coli; conditions: unit assumed
Procedure: as §1, §2

P. aeruginosa Pa2 [9] = assay: BMD susceptibility test; type: cell-based, Pseudomonas aeruginosa; conditions: unit assumed
[10] = test system: Klebsiella pneumoniae KPN6; assay: VITEK drug sensitivity test; type: cell-based; conditions: unit assumed
P. aeruginosa Pa3 [11] = assay: BMD susceptibility test; type: cell-based, Pseudomonas aeruginosa; conditions: unit assumed
P. aeruginosa Pa2 [12] = assay: FaAST (FDAA metabolic labeling); type: cell-based, Pseudomonas aeruginosa; conditions: unit assumed
Procedure: as §1, §2

Pa ATCC 27853 [13] = assay: FaAST (FDAA metabolic labeling); type: cell-based, Pseudomonas aeruginosa; conditions: unit assumed
Procedure: as §1, §2

P. aeruginosa Pa3 [14] = assay: FaAST (FDAA metabolic labeling); type: cell-based, Pseudomonas aeruginosa; conditions: unit assumed
Procedure: as §1, §2

E. coli Ec13 [15] = assay: FaAST (FDAA metabolic labeling); type: cell-based, Escherichia coli; conditions: unit assumed
Procedure: as §1, with “cytometry.” for “cytometry. The flow detection results are shown in the attached FIG. 4-5, showing the curve of antibiotic concentration gradient and fluorescence intensity, and the MIC (minimum inhibitory concentration) is obtained by referring to this curve.”

Ec ATCC 25922 [16] = assay: BMD susceptibility test; type: cell-based, Escherichia coli; conditions: unit assumed
E. coli Ec13 [17] = assay: BMD susceptibility test; type: cell-based, Escherichia coli; conditions: unit assumed
Pa ATCC 27853 [18] = assay: BMD susceptibility test; type: cell-based, Pseudomonas aeruginosa; conditions: unit assumed
Ec ATCC 25922 [19] = conditions: cited from earlier work
E. coli Ec11 [20] = assay: BMD susceptibility test; type: cell-based, Escherichia coli; conditions: unit assumed
E.coli 1113 [21] = assay: Vitek 2 drug sensitivity test; type: cell-based, Escherichia coli; on Sensibility: key: S: Drug sensitive; R: Drug resistance
A. baumannii Ab16 [22] = assay: FaAST (FDAA metabolic labeling); type: cell-based, Acinetobacter baumannii; conditions: unit assumed
Procedure: as §1, with “cytometry.” for “cytometry. The flow detection results are shown in the attached FIG. 4-5, showing the curve of antibiotic concentration gradient and fluorescence intensity, and the MIC (minimum inhibitory concentration) is obtained by referring to this curve.”

E.coli 1146 [23] = assay: Vitek 2 drug sensitivity test; type: cell-based, Escherichia coli; on Sensibility: key: S: Drug sensitive; R: Drug resistance
E.coli 1146 [24] = assay: FDAA metabolic labeling susceptibility test (Cy5-DAA probe, flow cytometry); type: cell-based, Escherichia coli; conditions: Escherichia coli; E.coli 1146; Cy5-DAA probe, 2 hours; read-out: MIC, FDAA
Procedure: as §1

E.coli 1113 [25] = assay: as above; type: cell-based, Escherichia coli; conditions: Escherichia coli; E.coli 1113; Cy5-DAA probe, 2 hours; read-out: MIC, FDAA
Procedure: as §1

A. baumannii Ab16 [26] = assay: BMD susceptibility test; type: cell-based, Acinetobacter baumannii; conditions: unit assumed

SMILES	BMD (MIC) (A. baumannii Ab19 [1]) [µg/mL]	BMD (MIC) (K. pneumoniae Kp6 [2]) [µg/mL]	FaAST (MIC) (A. baumannii Ab19 [3]) [µg/mL]	CLSI QC range (Pa ATCC 27853 [4])	FaAST (MIC) (K. pneumoniae Kp6 [5]) [µg/mL]	FaAST (MIC) (E. coli Ec11 [7]) [µg/mL]	FaAST (MIC) (Ec ATCC 25922 [8]) [µg/mL]	BMD (MIC) (P. aeruginosa Pa2 [9]) [µg/mL]	BMD (MIC) (P. aeruginosa Pa3 [11]) [µg/mL]	FaAST (MIC) (P. aeruginosa Pa2 [12]) [µg/mL]	FaAST (MIC) (Pa ATCC 27853 [13]) [µg/mL]	FaAST (MIC) (P. aeruginosa Pa3 [14]) [µg/mL]	FaAST (MIC) (E. coli Ec13 [15]) [µg/mL]	BMD (MIC) (Ec ATCC 25922 [16]) [µg/mL]	BMD (MIC) (E. coli Ec13 [17]) [µg/mL]	BMD (MIC) (Pa ATCC 27853 [18]) [µg/mL]	CLSI QC range (Ec ATCC 25922 [19])	BMD (MIC) (E. coli Ec11 [20]) [µg/mL]	further results
NCC[C@H](O)C(=O)N[C@@H]1C[C@H](N)[C@@H](O[C@H]2O[C@H](CN)[C@@H](O)[C@H](O)[C@H]2O)[C@H](O)[C@H]1O[C@H]1O[C@H](CO)[C@@H](O)[C@H](N)[C@H]1O [Amikacin]	2	0.5	2	1-4	0.5	8	2	2	4	0.5	4	8	1	1	2	2	0.5-4^	4	MIC, FaAST [6]: 0.5 µg/mL (≈ 0.854 µM); MIC, VITEK [10]: 0.5 µg/mL (≈ 0.854 µM)
CO/N=C(\C(=O)N[C@@H]1C(=O)N2C(C(=O)[O-])=C(C[N+]3(C)CCCC3)CS[C@H]12)c1csc(N)n1 [Cefepime, cefepime]	1	≤ 0.25	1	0.5-4	0.5	0.5	≤ 0.25	1	8	0.5	2	4	> 128	≤ 0.25	> 64	2	0.016-0.12	≤ 0.25	MIC, Vitek 2 (E.coli 1113 [21]): > 64 µg/mL; Sensibility (E.coli 1113 [21]): R; FaAST (MIC) (A. baumannii Ab16 [22]): 64 µg/mL; Sensibility (E.coli 1146 [23]): S; MIC (E.coli 1146 [23]; Escherichia coli): ≤ 1 µg/mL; MIC (E.coli 1146 [24]): 4 µg/mL (≈ 8.32 µM); MIC (E.coli 1113 [25]): ≥ 128 µg/mL; BMD (MIC) (A. baumannii Ab16 [26]): 128 µg/mL
